Biological target: T1, Rat Striatal 5-HT6 Receptors (Rattus norvegicus, UniProt P31388)
T1 construct: Striatal tissue from adult rats (Sprague-Dawley, 320-370 g, B & K Sweden) were dissected out, weighed and homogenized; from tissue; host or cells: rat striatum (Sprague-Dawley) membranes
Assay: [125I]SB258585 binding to rat striatal 5-HT6 receptors
Settings: competition with [125I]SB258585, rat striatal membranes
Protocol: Method for [125I]SB258585 Binding to Rat Striatal 5-HT6 Receptors
[^125I]SB258585 (1) with specific radioactivity 2000 Ci/mmol was purchased from Amersham Biosciences Europe GmbH, Freiburg, Germany. Other chemicals were purchased from commercial sources and were of analytical grade.
Striatal tissue from adult rats (Sprague-Dawley, 320-370 g, B & K Sweden) were dissected out, weighed and homogenized in buffer containing 50 mM Tris-HCl, 4 mM MgCl2, 1 mM EDTA, 10 μM pargyline and protease inhibitor (Complete, Roche Diagnostics) pH 7.4 using an Ultra-Turrax T8 (IKA Labortechnik, Germany). The tissue homogenate was centrifuged at 48 000×g for 10 min and the pellet was resuspended and recentrifuged as above. […]
Saturation binding studies were carried out in duplicate with 1-3 mg w.w. per tube in 0.5 ml buffer (50 mM Tris, 4 mM MgCl2, 100 mM NaCl, 1 mM EDTA, 5 mM ascorbate and 10 μM pargyline at pH 7.4), 0.2 nM [^125I]SB258585 and unlabelled SB258585 to give a final concentration range of 0.23-20 nM (12 conc.). Non-specific binding was determined in the presence of 10 μM methiothepin. […] The radioactivity was determined in a Packard Tri-Carb 2900TR liquid scintillation counter. Data were analyzed by non-linear regression analyses using PRISM 4.00 (GraphPad Software Inc., San Diego, Calif.). […]

T1 sequence (P31388 whole entry): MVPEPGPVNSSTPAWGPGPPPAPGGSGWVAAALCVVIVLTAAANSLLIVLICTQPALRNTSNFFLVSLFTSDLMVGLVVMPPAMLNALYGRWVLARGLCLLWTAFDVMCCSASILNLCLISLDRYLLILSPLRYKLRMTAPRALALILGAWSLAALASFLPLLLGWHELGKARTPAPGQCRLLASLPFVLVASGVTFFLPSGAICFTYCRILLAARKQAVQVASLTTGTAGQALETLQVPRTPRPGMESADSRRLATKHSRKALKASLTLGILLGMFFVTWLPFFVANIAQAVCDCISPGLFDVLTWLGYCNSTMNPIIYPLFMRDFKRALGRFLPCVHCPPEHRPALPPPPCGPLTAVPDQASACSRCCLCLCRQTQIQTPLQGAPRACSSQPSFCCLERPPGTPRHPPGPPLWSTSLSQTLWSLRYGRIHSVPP

SMILES	Ki [nM]
CN1CCOc2ccc(NS(=O)(=O)c3cccc(Cl)c3Cl)cc2C1 [Example 6, 2,3-dichloro-N-(4-methyl-2,3,4,5-tetrahydro-1,4-benzoxazepin-7-yl)benzenesulfonamide]	31 ± 9
O=S(=O)(Nc1ccc2c(c1)CNCCC2)c1csc(C(F)(F)F)c1-c1ccccc1 [Example 39, 4-phenyl-N-(2,3,4,5-tetrahydro-1H-2-benzazepin-8-yl)-5-(trifluoromethyl)thiophene-3-sulfonamide]	32 ± 14
